BindingDB's records for doi:10.1016/j.bmc.2013.03.004 (University of Oxford, 2013)
pIC50: −log10 of the molar value.

Target: T1, Lysosomal acid glucosylceramidase (Bos taurus, UniProt Q2KHZ8)
T1 sequence (Q2KHZ8 whole entry): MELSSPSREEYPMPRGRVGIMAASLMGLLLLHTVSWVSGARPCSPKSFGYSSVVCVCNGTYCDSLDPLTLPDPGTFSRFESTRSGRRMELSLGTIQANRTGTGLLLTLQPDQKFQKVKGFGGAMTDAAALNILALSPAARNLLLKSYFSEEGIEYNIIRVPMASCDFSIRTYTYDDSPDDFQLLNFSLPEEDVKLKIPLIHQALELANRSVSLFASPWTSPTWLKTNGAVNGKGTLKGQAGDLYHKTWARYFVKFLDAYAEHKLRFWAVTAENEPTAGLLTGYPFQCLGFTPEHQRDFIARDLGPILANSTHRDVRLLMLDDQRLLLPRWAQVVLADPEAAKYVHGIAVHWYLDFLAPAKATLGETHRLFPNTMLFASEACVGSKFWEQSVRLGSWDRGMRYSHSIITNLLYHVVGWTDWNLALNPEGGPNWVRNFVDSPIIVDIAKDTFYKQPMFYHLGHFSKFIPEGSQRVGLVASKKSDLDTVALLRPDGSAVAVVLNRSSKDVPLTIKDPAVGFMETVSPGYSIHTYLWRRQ
Test: Inhibition of bovine liver beta-glucosidase

OC[C@H](O)[C@@H]1NC[C@@H]1O
pIC50: 3.00
